Consider 18 compounds from patent US20220119399A1, “COMPOUNDS AND COMPOSITIONS THAT CAUSE MYCN AND/OR CMYC DEGRADATION AND METHODS OF USE THEREOF” (THE TRUSTEES OF COLUMBIA UNIVERSITY IN THE CITY OF NEW YORK, priority 2018, published 2022).

Data set [1] relates to SK-N-Be2 cells. In words: Cell viability assay (CellTiterGlo) in SK-N-Be2 cells. Type of data set: cell-based, human. Particulars: for IC20: determined empirically.
The subject of a further data set is TEAD4 transcript. Briefly: RNASeq analysis of SK-N-Be2 cells, TEAD4 transcript. Type of data set: cell-based, human. Particulars: 3 μM or 10 μM, 3 h and 6 h. The protocol:
(§1) To uncover changes in gene expression that underpin responses to pomiferin and isopomiferin, RNASeq analysis of SK-N-Be2 cells was performed following treatment with the two active prenylated isoflavonoids as well as a null analog that served as a negative control. SK-N-Be2 cells were treated with either 3 μM or 10 μM of isopomiferin or pomiferin and sampled after 3 h and 6 h. […] By comparing the active to the null analogs, downstream analyses can focus on changes in gene expression associated with the MYCN signature.

The next data set deals with MYCN transcript. In words: RNASeq analysis of SK-N-Be2 cells, MYCN transcript. In kind it is cell-based, human. Particulars: 3 μM or 10 μM, 3 h and 6 h. The procedure:
as §1

Another data set has as its system MYCN MR signature. Briefly: RNASeq with VIPER analysis of the MYCN MR signature. Type of data set: cell-based, human. Particulars: SK-N-Be2 cells; listed as dimethyl pomiferin. The procedure:
as §1
Intriguingly, only six MRs were suppressed by pomiferin and isopomiferin, while being unaffected by the null analog dimethyl pomiferin (FIG. 20B).

Data set [2] concerns Histone H3 phosphorylation. In words: Histone H3 phosphorylation western blot. Type of data set: cell-based. The following applies: 1 μM. The source says:
Membranes were blocked using Odyssey Blocking Buffer (LI-COR) for 1 hr at room temperature. […] Primary antibodies used in these studies include: MycN (CST; 1:500 dilution), Actin (SCBT; 1:2000 dil.), cMYC (CST; 1:500 dil.), pAKT (S473; CST; 1:500 dil.), AKT (CST; 1:2000), pP70 (T389; CST; 1:1000) P70 (CST; 1:1000).
We also compared the potency of these drugs against a recently developed AurKA inhibitor that acts by disrupting protein confirmation rather than simply blocking the protein:protein interaction site as alisertib does.

Data set [3] concerns MycN^AMP regulatory module (Master Regulators, TCM). In words: PLATE-Seq with VIPER analysis: reversion of the MycN^AMP master regulator module. In kind it is cell-based, human. Particulars: SK-N-Be2 cells, IC20, 24 hrs. The source says: Reads were mapped against the human reference genome version Grch38 using the STAR aligner, and used the variance stabilizing transformation from the DESeq2 package for R to normalize each plate. Next, we corrected for batch effect due to having compounds replicates on separate plates. We used the function combat from the sva package for R to compute the batch-corrected normalized gene expression, and fitted a linear model for each compound against the set of DMSO controls on each plate (6 wells per plate per DMSO-treated cells). We used the limma package for R to fit the linear model and to compute p-values and moderated t-statistics for each gene. For each compound, we used a vector of these statistics to generate a gene expression profile of z-scores representing the compound effect as differential between post- and pre-treatment.
Each compound gene expression profile was analyzed using the VIPER algorithm (Alvarez et al. 2016) with TARGET and NRC NBL interactomes, reverse-engineered as described in (Rajbhandari et al. 2018), resulting in two protein activity profiles for each compound that were integrated using Stouffer's z-score method.

In another data set the test system is mutant isoform of CK2a1. Briefly: Cell viability after expression of mutant CK2a1 isoform. Particulars: versus GFP-expressing plasmid.
In data set [4] the test system is SK-N-Be2 cells. In kind it is in vitro ADME, human. The procedure:
In brief, SK-N-Be2 cells were seeded at 400 k cells/well in 6 w plates and incubated overnight. The following day, compounds were added to wells at indicated concentrations, with DMSO-only control added to non-treated wells. Following treatment for the indicated time periods, cells were trypsinized, rinsed twice with cold PBS to remove media, pelleted by centrifugation, and frozen at −20° C. To extract compounds, frozen pellets were resuspended in 150 μL of acetonitrile, sonicated for 2′, and centrifuged at 1400×g for 75′ at 4° C. Supernatant was collected and analyzed by LC-MS using a system comprised of a Thermo Scientific Dionex Ultimate 3000 and a Bruker amaZon SL equipped with an electrospray ionization source controlled by a Bruker Hystar 3.2. Compounds were separated by injecting 20 μL of supernatant onto an Agilent Eclipse Plus C18 column (2.1×50 mm, […]) maintained at 20° C., with the flow rate set at 400 μL/min. Initial flow conditions were 60% solvent A (MilliQ H2O, 0.1% acetic acid), and 40% solvent B (HPLC-grade MeOH, 0.1% acetic acid). Solvent B was raised to 60% over 0.25 min and to 70% by 6.75 min. Solvent B was raised to 95% by 7 min and lowered back to 40% by 8 minutes; total run time was 9 min (Bos et al. 2019).

In the next data set the target is T1, CK2a1 (Homo sapiens, UniProt P68400).
T1 construct: purchased Reaction Biology Corporation (Malvern, Pa.)
T1 sequence (P68400 whole entry): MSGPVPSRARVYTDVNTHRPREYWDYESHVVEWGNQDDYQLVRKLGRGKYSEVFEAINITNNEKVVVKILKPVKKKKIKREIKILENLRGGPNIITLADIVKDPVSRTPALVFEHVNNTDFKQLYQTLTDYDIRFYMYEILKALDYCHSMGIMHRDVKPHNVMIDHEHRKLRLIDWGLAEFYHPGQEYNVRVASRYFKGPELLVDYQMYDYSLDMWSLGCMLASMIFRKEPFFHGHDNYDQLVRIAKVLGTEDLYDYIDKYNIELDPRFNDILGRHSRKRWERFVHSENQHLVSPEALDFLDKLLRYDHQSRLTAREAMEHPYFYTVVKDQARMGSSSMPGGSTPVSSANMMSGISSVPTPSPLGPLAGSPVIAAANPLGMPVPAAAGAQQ
Briefly: Cell-free biochemical CK2a1 kinase assay. The procedure: Cell-free biochemical kinase assays were performed at Reaction Biology Corporation (Malvern, Pa.). In brief, kinase substrates were diluted into reaction buffer containing 20 mM Hepes (pH 7.5), 10 mM MgCl2, 1 mM EGTA, 0.02% Brij35, 0.02 mg/ml BSA, 0.1 mM Na3VO4, 2 mM DTT, 1% DMSO. Purified protein (CK2a1, CK2a2, or mTOR) was added to the substrate solution and gently mixed. Test compounds were diluted from 10 mM DMSO stock solutions into the reaction buffer using an Echo550 acoustic dispenser, followed by incubation at RT for 20 min. 33P-ATP (10 μCi/μL) was added to reaction mixture, following incubation for 2 h at RT. Reactions were then spotted onto P81 ion exchange paper and kinase activity was detected by filter binding method.

Another data set has as its target mTOR (Homo sapiens, UniProt P42345). The following applies: Bajer et al. 2014; cited from earlier work.
Data set [5] can be described thus: Metabolic stability in mouse liver microsomes. In kind it is in vitro ADME. Particulars: 2 h incubation, positive control. The procedure:
Mouse liver microsomes (Xenotech) were diluted to 0.5 mg/mL in a solution containing 100 mM PBS buffer at 7.4 pH, an NADPH regenerating system (Promega), and test compounds at 20 μM. The mixture was incubated at 37° C. under gentle rotation for the indicated time points. The reaction was quenched by aliquoting 15 μL of solution into 60 μL ice-cold acetonitrile containing an internal standard. Test compounds were quantified by LC-MS using a system comprised of a Thermo Scientific Dionex Ultimate 3000 and a Bruker amaZon SL equipped with an electrospray ionization source controlled by a Bruker Hystar 3.2. Compounds were separated by injecting 20 μL of sample onto an Agilent Eclipse Plus C18 column (2.1×50 mm, […]) maintained at 20° C., with the flow rate set at 400 μL/min. Initial flow conditions were 60% solvent A (MilliQ H2O, 0.1% acetic acid), and 40% solvent B (HPLC-grade MeOH, 0.1% acetic acid). Solvent B was raised to 60% over 0.25 min and to 70% by 6.75 min. Solvent B was raised to 95% by 7 min and lowered back to 40% by 8 minutes; total run time was 9 min.

Where [6] appears, read: Homo sapiens, SKNBE2, SK-N-Be2 cells.

The structures appear in SMILES notation. “Also recorded” adds a separate entry of the source. Where a SMILES comes first, the peptide text is derived from it. The star is where a group is joined. Cbz = O=C(OCc1ccccc1)*

As to `COc1c(C)c2c(c(O)c1C/C=C(\C)CCC(=O)O)C(=O)OC2` [Mycophenolic acid], in the data set with SK-N-Be2 cells [1] (setting [6]), the concentration for an effect of 20% (IC20) was found to be 2500 nM.

As to `COc1ccc(-c2coc3c4c(c(CC=C(C)C)c(O)c3c2=O)OC(C)(C)C=C4)cc1OC` [pomiferin dimethyl ether, 3-(3,4-dimethoxyphenyl)-5-hydroxy-8,8-dimethyl-6-(3-methylbut-2-en-1-yl)-4H,8H-pyrano[2,3-f]chromen-4-one], the “TEAD4 transcript (RNASeq)” value in the data set with TEAD4 transcript was “did not affect either MYCN or TEAD4”. For the same compound, the “MYCN transcript abundance (RNASeq)” value in the data set on MYCN transcript was “did not affect either MYCN or TEAD4”. Besides, in the data set on SK-N-Be2 cells [1] (SK-N-Be2 cells, 72 hrs), the “inhibition of SK-N-Be2 cell viability (rank or activity in words)” value is “inactivity at 20 μM”. In addition, the “effect on the MYCN MR signature (VIPER of RNASeq)” value with MYCN MR signature is “does not revert the MYCN signature; also recorded: did not”.

For `COc1cc(Nc2ncc3c(n2)-c2ccc(Cl)cc2C(c2c(F)cccc2OC)=NC3)ccc1C(=O)O` [alisertib], the “Histone H3 phosphorylation” value in data set [2] is reported as “inhibit Histone H3 phosphorylation”. Moreover, in data set [3], the “reversion of the MR regulatory module / TCM (VIPER of PLATE-Seq)” value is recorded as “does not suppress the regulatory signature in the same way as isopomiferin”.

`O=C(O)c1ccc2c(c1)nc(Nc1cccc(Cl)c1)c1ccncc12` [CX-4945]: in the data set on mutant isoform of CK2a1, the “resistance conferred by mutant CK2 isoform” value is reported as “modest resistance”. Further, in the data set with SK-N-Be2 cells [4], the cell permeability entry is listed as “poor cell permeability”. In the data set on SK-N-Be2 cells [4] (human, 20 μM), the “amount of compound detected in cell sample” value came to 2.2 ng. Moreover, the CK2a1 kinase activity entry on CK2a1 is reported as “completely inhibited kinase activity of CK2a at all concentrations tested”.

For `CO[C@H]1/C=C\C=C(/C)C(=O)NC2=CC(=O)C(N)=C(C[C@@H](C)C[C@H](OC)[C@H](O)[C@@H](C)/C=C(\C)[C@@H]1OC(N)=O)C2=O` [NSC255109], it took 2500 nM to reach the 20% level in the data set on SK-N-Be2 cells [1] (SK-N-Be2 cells) (IC20).

Compound `c1ccc(-c2cccc(-c3ccccn3)n2)nc1` [NSC3905] displayed a 20% effect concentration (IC20) with SK-N-Be2 cells [1] (SK-N-Be2 cells) of 3000 nM. This IC20 and that of the compound before are within 1.5-fold of each other.

With `CC(=O)Oc1ccc(-c2coc3c4c(c(CC=C(C)C)c(OC(C)=O)c3c2=O)OC(C)(C)C=C4)cc1OC(C)=O` [pomiferin triacetate, 4-(5-acetoxy-8,8-dimethyl-6-(3-methylbut-2-en-1-yl)-4-oxo-4H,8H-pyrano[2,3-f]chromen-3-yl)-1,2-phenylene diacetate], the “mTOR activity and general kinase inhibition” value on mTOR was “can inhibit mTOR activity; also recorded: does not possess general kinase inhibition activity”.

In the case of `c1ccc2c(c1)Nc1ccccc1S2` [phenothiazine], the “reversion of the MR regulatory module / TCM (VIPER of PLATE-Seq)” value in data set [3] was “does not revert the signature”. Besides, the “activity in NBL cells (cell viability)” value in the data set on SK-N-Be2 cells [1] (NBL cell lines, 48 hrs) was “inactive in NBL”.

For `COc1cc([C@@H]2c3cc4c(cc3[C@H](O)[C@H]3COC(=O)[C@H]23)OCO4)cc(OC)c1OC` [Podofilox], it took 1000 nM to reach the 20% level in the data set with SK-N-Be2 cells [1] (setting [6]) (IC20).

Regarding `CN(C)c1ccc2nc3ccc(N)cc3[s+]c2c1.[Cl-]` [Azure A], the “Histone H3 phosphorylation” value in data set [2] was “inhibit Histone H3 phosphorylation”. For the same compound, the concentration for an effect of 20% (IC20) in the data set on SK-N-Be2 cells [1] (SK-N-Be2 cells) came to 1000 nM.

For the compound `CC(C)C[C@@H](C=O)NC(=O)[C@H](CC(C)C)NC(=O)[C@H](CC(C)C)NC(=O)OCc1ccccc1` [MG132] (Cbz-Leu-Leu-Leu-aldehyde), the “resistance conferred by mutant CK2 isoform” value with mutant isoform of CK2a1 is “no resistance was conferred by the plasmid”.

In turn, `CC[C@@H](C(=O)O)[C@@H]1O[C@@H]([C@@H](C)[C@H](O)[C@H](C)C(=O)[C@H](CC)[C@H]2O[C@]3(C=C[C@@H](O)[C@]4(CC[C@@](C)([C@H]5CC[C@](O)(CC)[C@H](C)O5)O4)O3)[C@H](C)C[C@@H]2C)[C@@H](C)C[C@@H]1C` [Narasin] returned a concentration for an effect of 20% (IC20) in the data set on SK-N-Be2 cells [1] (setting [6]) of 1000 nM.

The compound `OC(c1cc(-c2ccc(C(F)(F)F)cc2)nc(C(F)(F)F)c1)C1CCCCN1` (stereo not shown) [NSC305798] displayed a concentration for an effect of 20% (IC20) in the data set on SK-N-Be2 cells [1] (SK-N-Be2 cells) of 5000 nM.

Regarding `CCOc1ccc2ccc(=O)oc2c1` [7-ethoxycoumarin, reference compound], in data set [5], the “metabolism by mouse liver microsomes” value was “metabolized across the duration of the assay”.

For the compound `CC(=O)[C@@]1(O)[C@H](C)C[C@H]2[C@@H]3C=C(C)C4=Cc5c(cnn5-c5ccccc5)C[C@]4(C)[C@H]3[C@@H](O)C[C@@]21C` [NSC80997], the 20% effect concentration (IC20) in the data set on SK-N-Be2 cells [1] (SK-N-Be2 cells) stood at 7500 nM.

In the case of `Oc1ccc(Cl)c2cccnc12` [Cloxyquin], in the data set on SK-N-Be2 cells [1] (setting [6]), the IC20 was found to be 5000 nM.

For the compound `COc1cccc2c1C(=O)c1c(O)c3c(c(O)c1C2=O)C[C@@](O)(C(=O)CO)C[C@@H]3O[C@H]1C[C@H](N)[C@H](O)[C@H](C)O1` [doxorubicin], in data set [3], the “reversion of the MR regulatory module / TCM (VIPER of PLATE-Seq)” value was “induced spurious effects”.

`CN(C)c1ccc2nc3ccc(=[N+](C)C)cc-3sc2c1` [Methylene Blue]: the “Histone H3 phosphorylation” value in [2] was “inhibit Histone H3 phosphorylation”. Further, it took 2000 nM to reach the 20% level with SK-N-Be2 cells [1] (setting [6]) (IC20).
